Laboratory results published in patent US7745657B2, “D-homoandrosta-17-yl carbamate derivatives as selective glucocorticoid receptor ligands” (Merck Sharp & Dohme Corp., priority 2005, dated 2010).

Molecular target: T1, human GR (Homo sapiens, UniProt P04150)
T1 construct: U937 cells contain an endogenous glucocorticoid receptor (GR); endogenous in cells; host or cells: U937 cells stably transfected with the TNF-alpha promoter / beta-lactamase reporter
T1 sequence (P04150 1-777): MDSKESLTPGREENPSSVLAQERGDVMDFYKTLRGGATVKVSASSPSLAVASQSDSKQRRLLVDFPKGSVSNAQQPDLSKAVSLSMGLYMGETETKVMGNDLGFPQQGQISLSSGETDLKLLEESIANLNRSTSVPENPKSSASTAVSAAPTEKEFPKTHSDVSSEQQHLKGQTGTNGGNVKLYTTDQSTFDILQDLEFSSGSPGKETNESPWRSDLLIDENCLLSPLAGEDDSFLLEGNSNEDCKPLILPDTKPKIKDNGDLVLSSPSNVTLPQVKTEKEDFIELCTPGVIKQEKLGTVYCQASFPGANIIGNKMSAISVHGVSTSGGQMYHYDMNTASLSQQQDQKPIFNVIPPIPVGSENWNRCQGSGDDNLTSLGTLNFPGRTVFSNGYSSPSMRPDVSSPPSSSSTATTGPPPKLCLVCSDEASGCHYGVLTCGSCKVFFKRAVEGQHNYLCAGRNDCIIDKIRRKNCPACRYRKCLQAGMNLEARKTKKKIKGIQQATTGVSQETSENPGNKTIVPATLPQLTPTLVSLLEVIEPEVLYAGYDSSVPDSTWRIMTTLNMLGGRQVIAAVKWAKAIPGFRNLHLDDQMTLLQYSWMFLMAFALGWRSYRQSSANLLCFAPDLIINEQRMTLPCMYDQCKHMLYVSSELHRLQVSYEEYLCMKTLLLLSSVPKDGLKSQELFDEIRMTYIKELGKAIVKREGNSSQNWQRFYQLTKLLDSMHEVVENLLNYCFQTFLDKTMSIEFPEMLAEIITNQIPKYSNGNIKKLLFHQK
Experiment: Transrepression assay, TNFα-β-lactamase reporter gene in U937 cells
Type: cell-based
Details: U-937, PMA/LPS stimulated, activity repressed by 100 nM dexamethasone alone set as 100%, read-out: maximal activity
From the text: This assay assesses the ability of test compounds to control transcription from the TNFα-β-lactamase reporter gene in U937 cells, a human myelomonocytic leukemia cell line that naturally expresses the human GR. The assay measures compound dependent-repression of the TNFα promoter linked to a reporter gene.
The human U937 cells that had been stablely transfected with the TNF-αpromoter driving β-lactamase are used for this assay. U937 cells contain an endogenous glucocorticoid receptor (GR). Cells are maintained in RPMI 1640 Growth medium (Gibco Cat#11875-093) containing 25 mM HEPES, 10% FBS, 2 mM L-Glutamine, 1 mM Sodium pyruvate, 25 μg/ml Gentamicin (Gibco Cat#15710-064), 1:1000 2-Mercaptoethanol (Gibco Cat#21985-023) and 0.8 mg/ml G418 (Gibco Cat#10131-027). The density of the cells in the flask needs to be about 1×10^6−3×10^6/ml at the time of harvest. Usually, the cells are split to 1.2˜1.4×10^5/ml (1:10) 3 days prior to the assay. 50,000 cells/well are plated in 96 well black-walled plates the day of assay. Test compounds are added 10 μL/well, and cells are incubated at 37° C. for 30˜45 min. For assaying compounds, first dilute 1:10 in DMSO to make 1 mM, then further dilute 1:100 in medium to make 10× stock prior to adding to the cells. Add 50 ng/ml PMA (Sigma, cat# P8139) 10 μL/well to a final concentration 5 ng/ml, and 1 μg/ml LPS (Sigma, cat# L4130) 10 μL/well to a final concentration 100 ng/ml. Incubate cells at 37° C. overnight for ˜18 hr. PMA is stored frozen as 100 μg/ml stock in DMSO. Dilute 1:10 in DMSO for a working stock of 10 μg/ml and store at −20 C. For assaying, dilute the 10 μg/ml working stock 1:200 in medium to make a 10× solution (50 ng/ml). Store frozen LPS at 1 mg/ml in PBS, dilute 1:1000 in medium to make 10× (1 μg/ml) for the assay. Add 6× loading buffer (CCF2-AM) 20 μL/well, and incubate at room temperature for 70˜90 min. […] The activity repressed by 100 nM dexamethasone alone is set as 100% activity.

SMILES | Emax
C[C@H]1CC2C3CCC4=CC(=O)C=C[C@]4(C)[C@@]3(F)[C@@H](O)C[C@]2(C)C(=O)[C@]1(CO)OC(=O)NC12CC3CC(CC(C3)C1)C2 (stereo partly drawn) [Example 1, (11β,16β,17α)-9-fluoro-11-hydroxy-16-methyl-3,17a-dioxo-17-(hydroxymethyl)-d-homoandrosta-1,4-dien-17-yl-(1-adamantyl)carbamate] | > 5%
CC(=O)OCC1(OC(=O)NC23CC4CC(CC(C4)C2)C3)C(=O)C2(C)CC(OC(=O)C(F)(F)F)C3(F)C(CCC4=CC(=O)C=CC43C)C2CC1C [Example 5, (11β,16β,17α)-9-fluoro-11-trifluoroacetoxy-16-methyl-3,17a-dioxo-17-[(acety1oxy)methy1]-D-homoandrosta-1,4-dien-17-yl-(1-adamantyl)carbamate] | > 5%
CC(=O)OCC1(OC(=O)NC23CC4CC(CC(C4)C2)C3)C(=O)C2(C)CC(O)C3(F)C(CCC4=CC(=O)C=CC43C)C2CC1C [Example 6, (11β,16β,17α)-9-fluoro-11-hydroxy-16-methyl-3,17a-dioxo-17-[(acetyloxy)methyl]-D-homoandrosta-1,4-dien-17-yl-(1-adamantyl)carbamate] | > 5%
CC1CC2C3CCC4=CC(=O)C=CC4(C)C3(F)C(OC(=O)C(F)(F)F)CC2(C)C(=O)C1(CO)OC(=O)NC12CC3CC(CC(C3)C1)C2 [Example 7, (11β,16β,17α)-9-fluoro-11-trifluoroacetoxy-16-methyl-3,17a-dioxo-17-(hydroxymethyl)-D-homoandrostra-1,4-dien-17-yl-(1-adamantyl)carbamate] | > 5%
CC1CC2C3CCC4=CC(=O)C=CC4(C)C3(F)C(O)CC2(C)C(=O)C1(CO)OC(=O)NC1CCCCC1 [Example 9, (11β,16β,17α)-9-fluoro-11-hydroxy-16-methyl-3,17a-dioxo-17-(hydroxymethyl)-D-homoandrosta-1,4-dien-17-yl-(cyclohexyl)carbamate] | > 5%

Second part, the compound after the results:

Emax | SMILES
> 5% | CCCC(C)NC(=O)OC1(CO)C(=O)C2(C)CC(O)C3(F)C(CCC4=CC(=O)C=CC43C)C2CC1C [Example 2, (11β,16β,17α)-9-fluoro-11-hydroxy-16-methyl-3,17a-dioxo-17-(hydroxymethyl)-D-homoandrosta-1,4-dien-17-yl-(2-pentyl)carbamate]
> 5% | CCCC(C)CNC(=O)OC1(CO)C(=O)C2(C)CC(O)C3(F)C(CCC4=CC(=O)C=CC43C)C2CC1C [Example 3, (11β,16β,17α)-9-fluoro-11-hydroxy-16-methyl-3,17a-dioxo-17-(hydroxymethyl)-D-homoandrosta-1,4-dien-17-yl-(2-methyl-pentyl)carbamate]
